# Reference: the NIST ThermoML archive (doi:10.1016/j.jct.2006.11.014)
# Numbers after ± are expanded uncertainties.
# Legend:
# [1] = an = ratio of the nth substance listed; settings: 298.15 K, 101 kPa, Liquid
# [2] = cn = amount concentration of the nth substance listed, in mol/dm3; settings: 298.15 K, 101 kPa, Liquid
smiles,measurement,setting,value
O=C(O)CNCC(=O)O [N-(carboxymethyl)glycine] + O,mass density,[1]; a1 = 0.1001,1035.94 ± 0.32 kg/m3
same,mass density,[1]; a1 = 0.1553,1053.34 ± 0.36 kg/m3
same,mass density,[1]; a1 = 0.193,1066.16 ± 0.4 kg/m3
same,mass density,[1]; a1 = 0.2113,1072.41 ± 0.41 kg/m3
same,mass density,[1]; a1 = 0.2201,1074.86 ± 0.42 kg/m3
same,mass density,[1]; a1 = 0.2258,1076.92 ± 0.42 kg/m3
CC(=O)[O-].[K+] [potassium ethanoate] + O,mass density,[2]; c1 = 1,1043.58 ± 0.32 kg/m3
same,mass density,[2]; c1 = 2,1087.93 ± 0.43 kg/m3
same,mass density,[2]; c1 = 4,1170.95 ± 0.64 kg/m3
[Br-].[K+] [potassium bromide] + O,mass density,[2]; c1 = 1,1080.52 ± 0.42 kg/m3
same,mass density,[2]; c1 = 2,1162.26 ± 0.63 kg/m3
same,mass density,[2]; c1 = 4,1323.4 ± 1.1 kg/m3
NCC(=O)NCC(=O)NCC(=O)O [glycylglycylglycine] + O,mass density,[1]; a1 = 0.0099,1001 ± 0.28 kg/m3
same,mass density,[1]; a1 = 0.0192,1004.77 ± 0.29 kg/m3
same,mass density,[1]; a1 = 0.0355,1011.02 ± 0.31 kg/m3
same,mass density,[1]; a1 = 0.0452,1014.88 ± 0.32 kg/m3
same,mass density,[1]; a1 = 0.0544,1018.36 ± 0.33 kg/m3
same,mass density,[1]; a1 = 0.0624,1021.44 ± 0.34 kg/m3
same,mass density,[1]; a1 = 0.0641,1022.05 ± 0.34 kg/m3
NCC(=O)NCC(=O)NCC(=O)NCC(=O)O [glycylglycylglycylglycine] + O,mass density,[1]; a1 = 0.0013,997.73 ± 0.29 kg/m3
same,mass density,[1]; a1 = 0.0023,998.04 ± 0.29 kg/m3
same,mass density,[1]; a1 = 0.0031,998.3 ± 0.29 kg/m3
same,mass density,[1]; a1 = 0.0033,998.38 ± 0.29 kg/m3
same,mass density,[1]; a1 = 0.0036,998.49 ± 0.29 kg/m3
same,mass density,[1]; a1 = 0.0038,998.55 ± 0.28 kg/m3
same,mass density,[1]; a1 = 0.0039,998.59 ± 0.28 kg/m3
[Cl-].[K+] [potassium chloride] + O,mass density,[2]; c1 = 1,1042.84 ± 0.32 kg/m3
same,mass density,[2]; c1 = 2,1082.33 ± 0.42 kg/m3
same,mass density,[2]; c1 = 4,1168.97 ± 0.63 kg/m3
NCC(=O)O [2-aminoacetic acid] + O,mass density,[1]; a1 = 0.1091,1039.02 ± 0.39 kg/m3
same,mass density,[1]; a1 = 0.1535,1053.89 ± 0.42 kg/m3
same,mass density,[1]; a1 = 0.1933,1065.41 ± 0.46 kg/m3
same,mass density,[1]; a1 = 0.2231,1075.18 ± 0.48 kg/m3
same,mass density,[1]; a1 = 0.239,1079.4 ± 0.49 kg/m3
same,mass density,[1]; a1 = 0.244,1080.36 ± 0.5 kg/m3
same,mass density,[1]; a1 = 0.2509,1082.99 ± 0.5 kg/m3
"O=C1CNC(=O)CN1 [2,5-diketopiperazine] + O",mass density,[1]; a1 = 0.0003,997.17 ± 0.29 kg/m3
same,mass density,[1]; a1 = 0.0007,997.34 ± 0.29 kg/m3
same,mass density,[1]; a1 = 0.0009,997.37 ± 0.29 kg/m3
same,mass density,[1]; a1 = 0.0026,997.92 ± 0.29 kg/m3
same,mass density,[1]; a1 = 0.0053,998.93 ± 0.28 kg/m3
same,mass density,[1]; a1 = 0.0101,1000.34 ± 0.28 kg/m3
same,mass density,[1]; a1 = 0.0134,1001.42 ± 0.29 kg/m3
same,mass density,[1]; a1 = 0.0157,1002.16 ± 0.29 kg/m3
same,mass density,[1]; a1 = 0.0168,1002.5 ± 0.29 kg/m3
